Some results are limits rather than exact numbers.

For orientation: EC50 means the concentration that produces a half-maximal response. Read a high EC50 as a need for much substance.

This assay concerns AMPK. Nature of the assay: AMPK activation assay (enzyme-linked immunosorbent assay). Type of assay: cell-based. Summed up:
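Read-out: immunodetected kinase activation after compound exposure, run with commercial kit reagents.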
The compound `CS(=O)(=O)c1ccc(C(=O)C2CCN(C(=O)c3ccc(C(=O)NC4CCN(Cc5ccc(C#N)cc5)CC4)cn3)CC2)cc1` [Compound 221, N-(1-(4-cyanobenzyl)piperidin-4-yl)-6-(4-(4-(methylsulfonyl)benzoyl)piperidine-1-carbonyl)nicotinamide] returned a concentration giving a half-maximal response (EC50) of 1000 to 5000 nM.
With `N#Cc1ccc(O[C@H]2CC[C@@H](NC(=O)c3ccc(C(=O)N4CCN(Cc5ccc(F)cc5)CC4)cn3)CC2)cc1` [Compound 150, N-(cis-4-(4-cyanophenoxy)cyclohexyl)-5-(4-(4-fluorobenzyl)piperazine-1-carbonyl)picolinamide] the figure was under 500 nM; with `CC(=O)Nc1ccc(OC2CCN(C(=O)c3ccc(C(=O)NC4CCN(Cc5ccc(F)cc5)CC4)cn3)CC2)cc1` [Compound 406, 6-(4-(4-acetamidophenoxy)piperidine-1-carbonyl)-N-(1-(4-fluorobenzyl)piperidin-4-yl)nicotinamide], 500 to 1000 nM.
With `O=C(NC1CCN(Cc2ccc(OC(F)(F)F)cc2)CC1)c1ccc(C(=O)N2CCC(Oc3ccc(S(=O)(=O)C4CC4)cc3)CC2)nc1` [Compound 249, 6-(4-(4-(cyclopropylsulfonyl)phenoxy)piperidine-1-carbonyl)-N-(1-(4-(trifluoromethoxy)benzyl)piperidin-4-yl)nicotinamide] the figure was under 500 nM.
With `O=C(c1ccc(C(=O)N2CCN(CCc3ccccc3)CC2)nc1)N1CCN(CCc2ccccc2)CC1` [Compound 92, pyridine-2,5-diylbis((4-phenethylpiperazin-1-yl)methanone)] the figure was over 10000 nM; with `O=C(Nc1ccc(Oc2ccccc2)cc1)c1ccc(C(=O)N2CCN(Cc3ccc(F)cc3)CC2)cn1` [Compound 16, 5-(4-(4-fluorobenzyl)piperazine-1-carbonyl)-N-(4-phenoxyphenyl)picolinamide], under 500 nM.
`CS(=O)(=O)c1ccc(N2CCC(NC(=O)c3ccc(C(=O)N4CCC(Oc5ccc(C#N)cc5)CC4)nc3)CC2)cc1` [Compound 420, 6-(4-(4-cyanophenoxy)piperidine-1-carbonyl)-N-(1-(4-(methylsulfonyl)phenyl)piperidin-4-yl)nicotinamide] yielded an EC50 of 1000 to 5000 nM.
As to `N#Cc1ccc(N2CCC(NC(=O)c3ccc(C(=O)N4CCN(Cc5ccc(F)cc5)CC4)nc3)CC2)cc1` [Compound 417, N-(1-(4-cyanophenyl)piperidin-4-yl)-6-(4-(4-fluorobenzyl)piperazine-1-carbonyl)nicotinamide], the half-maximal effective concentration (EC50) was under 500 nM.
As to `N#Cc1ccc(CN2CCC(NC(=O)c3ccc(C(=O)N4CCC(Oc5ccncc5)CC4)cn3)CC2)cc1` [Compound 269, N-(1-(4-cyanobenzyl)piperidin-4-yl)-5-(4-(pyridin-4-yloxy)piperidine-1-carbonyl)picolinamide], the 50% effective concentration (EC50) was under 500 nM.
Turning to `COc1ccc(C(=O)C2CCN(C(=O)c3ccc(C(=O)N[C@H]4CC[C@@H](Oc5ccc(F)cc5)CC4)cn3)CC2)cc1` [Compound 316, N-((cis)-4-(4-fluorophenoxy)cyclohexyl)-6-(4-(4-methoxybenzoyl)piperidine-1-carbonyl)nicotinamide], the concentration for a half-maximal effect (EC50) was under 500 nM.
Then `N#Cc1ccc(CN2CCC(NC(=O)c3ccc(C(=O)N4CCC(C(=O)c5ccc(C#N)cc5)CC4)cn3)CC2)cc1` [Compound 369, 5-(4-(4-cyanobenzoyl)piperidine-1-carbonyl)-N-(1-(4-cyanobenzyl)piperidin-4-yl)picolinamide], with under 500 nM.
Then `O=C(Nc1ccc(C(=O)N2CCN(Cc3ccc(F)cc3)CC2)cn1)c1ccc(Oc2ccc(F)cc2)nc1` [Compound 177, N-(5-(4-(4-fluorobenzyl)piperazine-1-carbonyl)pyridin-2-yl)-6-(4-fluorophenoxy)nicotinamide], with 1000 to 5000 nM; and `N#Cc1ccc(CN2CCC(NC(=O)c3ccc(C(=O)N4CCC(Oc5ccc(C(=O)C6CC6)cc5)CC4)nc3)CC2)cc1` [Compound 456, N-(1-(4-cyanobenzyl)piperidin-4-yl)-6-(4-(4-(cyclopropanecarbonyl)phenoxy)piperidine-1-carbonyl)nicotinamide], with under 500 nM.
Then `O=C(Nc1ccc(-c2ccsc2)cc1)c1ccc(C(=O)N2CCN(Cc3ccc(F)cc3)CC2)cn1` [Compound 62, 5-(4-(4-fluorobenzyl)piperazine-1-carbonyl)-N-(4-(thiophen-3-yl)phenyl)picolinamide], with under 500 nM; and `N#Cc1ccc(OC2CCN(c3ccc(C(=O)N4CCN(Cc5ccc(F)cc5)CC4)cn3)CC2)cc1` [Compound 188, 4-(1-(5-(4-(4-fluorobenzyl)piperazine-1-carbonyl)pyridin-2-yl)piperidin-4-yloxy)benzonitrile], with 500 to 1000 nM.
In the case of `N#Cc1ccc(CN2CCC(C(=O)Nc3ccc(C(=O)N4CCC(Oc5ccc(F)cc5)CC4)cn3)CC2)cc1` [Compound 173, 1-(4-cyanobenzyl)-N-(5-(4-(4-fluorophenoxy)piperidine-1-carbonyl)pyridin-2-yl)piperidine-4-carboxamide], the EC50 was under 500 nM.
Then `COc1ccc(C(=O)C2CCN(C(=O)c3ccc(C(=O)Nc4ccc(Oc5ccc(C#N)cc5)nc4C)cn3)CC2)cc1` [Compound 478, N-(6-(4-cyanophenoxy)-2-methylpyridin-3-yl)-6-(4-(4-methoxybenzoyl)piperidine-1-carbonyl)nicotinamide], with under 500 nM.
Then `COc1ccc(OC2CCCN(C(=O)c3ccc(C(=O)NC4CCN(Cc5ccc(C#N)cc5)CC4)nc3)C2)cc1` (centres unmarked) [Compound 274, N-(1-(4-cyanobenzyl)piperidin-4-yl)-5-(3-(4-methoxyphenoxy)piperidine-1-carbonyl)picolinamide], with over 10000 nM; and `COc1cccc(Oc2ccc(NC(=O)c3ccc(C(=O)N4CCN(Cc5ccc(F)cc5)CC4)cn3)cc2)c1` [Compound 57, 5-(4-(4-fluorobenzyl)piperazine-1-carbonyl)-N-(4-(3-methoxyphenoxy)phenyl)picolinamide], with under 500 nM.
For `N#Cc1ccc(OC2CCN(C(=O)c3ccc(C(=O)Nc4ccc(Oc5ccc(F)cc5)nc4)cn3)CC2)cc1` [Compound 326, 6-(4-(4-cyanophenoxy)piperidine-1-carbonyl)-N-(6-(4-fluorophenoxy)pyridin-3-yl)nicotinamide], the EC50 is under 500 nM.
In turn, `O=C(NC1CCN(Cc2ccc(F)cc2)CC1)c1ccc(C(=O)N2CCC(C(=O)c3ccc(F)cc3)CC2)cn1` [Compound 181, 5-(4-(4-fluorobenzoyl)piperidine-1-carbonyl)-N-(1-(4-fluorobenzyl)piperidin-4-yl)picolinamide] registered an EC50 of under 500 nM.
Then `N#Cc1ccc(OC2CCN(C(=O)c3ccc(C(=O)NC4CCN(c5ccc(F)cc5)CC4)cn3)CC2)cc1` [Compound 422, 6-(4-(4-cyanophenoxy)piperidine-1-carbonyl)-N-(1-(4-fluorophenyl)piperidin-4-yl)nicotinamide], with 1000 to 5000 nM; and `CS(=O)(=O)c1ccc(N2CCN(C(=O)c3ccc(C(=O)NC4CCN(Cc5ccc(C#N)cc5)CC4)nc3)CC2)cc1` [Compound 250, N-(1-(4-cyanobenzyl)piperidin-4-yl)-5-(4-(4-(methylsulfonyl)phenyl)piperazine-1-carbonyl)picolinamide], with under 500 nM; and `COc1ccc(C(=O)C2CCN(C(=O)c3ccc(C(=O)N[C@H]4CC[C@@H](Oc5ccc(F)cc5)CC4)nc3)CC2)cc1` [Compound 311, N-((cis)-4-(4-fluorophenoxy)cyclohexyl)-5-(4-(4-methoxybenzoyl)piperidine-1-carbonyl)picolinamide], with under 500 nM.
Then `COc1cc(C#N)ccc1OC1CCN(C(=O)c2ccc(C(=O)NC3CCN(Cc4ccc(C#N)cc4)CC3)nc2)CC1` [Compound 66, 5-(4-(4-cyano-2-methoxyphenoxy)piperidine-1-carbonyl)-N-(1-(4-cyanobenzyl)piperidin-4-yl)picolinamide], with under 500 nM.
With `CS(=O)(=O)c1ccc(OC2CCN(C(=O)c3ccc(C(=O)NC4CCN(Cc5ccc(F)cc5)CC4)cn3)CC2)cc1` [Compound 396, N-(1-(4-fluorobenzyl)piperidin-4-yl)-6-(4-(4-(methylsulfonyl)phenoxy)piperidine-1-carbonyl)nicotinamide] the figure was 1000 to 5000 nM; with `COc1ccc(C(=O)C2CCN(C(=O)c3ccc(C(=O)Nc4ccc(Oc5ccc(C(C)=O)cc5)nc4)cn3)CC2)cc1` [Compound 462, N-(6-(4-acetylphenoxy)pyridin-3-yl)-6-(4-(4-methoxybenzoyl)piperidine-1-carbonyl)nicotinamide], under 500 nM; with `N#Cc1ccc(CN2CCC(NC(=O)c3ccc(C(=O)N4CCC(Oc5ccc([N+](=O)[O-])cc5)CC4)nc3)CC2)cc1` [Compound 363, N-(1-(4-cyanobenzyl)piperidin-4-yl)-6-(4-(4-nitrophenoxy)piperidine-1-carbonyl)nicotinamide], under 500 nM.
`COc1ccc(OC2CCN(C(=O)c3ccc(C(=O)NC4CCN(Cc5ccc(C#N)cc5)CC4)cn3)CC2)c(N(C)C)c1` [Compound 385, N-(1-(4-cyanobenzyl)piperidin-4-yl)-6-(4-(2-(dimethylamino)-4-methoxyphenoxy)piperidine-1-carbonyl)nicotinamide] gave an EC50 of over 10000 nM.
Then `CS(=O)(=O)c1ccc(Oc2ccc(NC(=O)c3ccc(C(=O)N4CCC(C(=O)c5ccc(F)cc5F)CC4)nc3)cn2)cc1` [Compound 466, 6-(4-(2,4-difluorobenzoyl)piperidine-1-carbonyl)-N-(6-(4-(methylsulfonyl)phenoxy)pyridin-3-yl)nicotinamide], with under 500 nM; and `O=C(NC1CCN(C(=O)c2ccccc2)CC1)c1ccc(C(=O)N2CCN(Cc3ccc(F)cc3)CC2)cn1` [Compound 8, N-(1-(benzoyl)piperidin-4-yl)-5-(4-(4-fluorobenzyl)piperazine-1-carbonyl)picolinamide], with under 500 nM.
With `N#Cc1ccc(CN2CCC(NC(=O)c3ccc(C(=O)N4CCN(c5ccc(S(=O)(=O)C6CC6)cc5)CC4)cn3)CC2)cc1` [Compound 256, N-(1-(4-cyanobenzyl)piperidin-4-yl)-5-(4-(4-(cyclopropylsulfonyl)phenyl)piperazine-1-carbonyl)picolinamide] the figure was under 500 nM.

These data come from US20150087673A1, “METHODS FOR USING AND BIOMARKERS FOR AMPK-ACTIVATING COMPOUNDS” (RIGEL PHARMACEUTICALS, INC., priority 2013, published 2015).
